Measured values taken from patent US20220110862A1, “TREATMENT OF COGNITIVE DYSFUNCTION WITH PYRROLOPYRIDINE-ANILINE COMPOUNDS” (NFlection Therapeutics, Inc., priority 2020, published 2022).
“And” between values parts separate entries of the source, which are not always exact repeats. Equal entries are not always repeated. Where two headings read alike, the source gives them in different places.

Legend:
[1] = Brain concentration and brain:plasma ratio of Compound 1.003 after single intranasal administration of nasal formulation Ex. A (LC-MS/MS); type: in vivo, Mouse; conditions: female athymic mice, single intranasal 50 μL Ex. A; for Brain concentration, animal replicates: individual animals; for Brain concentration, Mean: mean of 3
Description: (§1) This study was conducted to investigate the potential for Compound 1.003 to penetrate into the brain following a single intranasal administration of a nasal formulation including the compound. Compound 1.003 was formulated at a dose strength of 2.3% according to Ex. A of Example 1.
(§2) A single group of female athymic mice each received a single intranasal administration of Compound 1.003. At intervals post dose the animals were sacrificed and samples of blood and brain were collected. The concentration of Compound 1.003 was determined in plasma and brain; and samples of brain were used for determination of the expression of phosphor-ERK (p-ERK).
(§3) The study was conducted using the following animals: • Species: Mouse; • Strain: NCr mu/mu athymic nude mice from Charles River; • Sex: Female; • Age: 7 weeks old at the time of dosing; • Body weight: 20.1 to 27.0 g; and • Number used: 12
(§4) Overview: A single group of 12 athymic female mice each received a single intranasal administration of Compound 1.003 (Ex. A nasal formulation of Example 1). Three animals were sacrificed at each a 4 times post dose and sample of plasma and brain collected at necropsy. The concentration of Compound 1.003 was determined in plasma and brain by liquid chromatography with tandem mass spectrometry (LC-MS/MS) and the expression of p-ERK was determined in brain samples.
(§5) Dosing: Each animal received a single administration (50 μL) of the nasal formulation Ex. A including Compound 1.003. The dose was administration intranasally to each animal.
(§6) (dry ice). The samples were send out for the LC-MS/MS analysis of plasma concentration of Compound 1.003. • Brain Collection: Brain (divide into 2 parts at the mid sagittal plane); Part 1: preservation—snap frozen, ship at −80° C. (dry ice) for the LC-MS/MS analysis of Compound 1.003; and Part 2: preservation—fixed in 10% neutral buffered formalin for at least 24 h. Samples were then transferred after 24 h into 1.5 mL Eppendorf tubes containing 70% EtOH and stored ambient until shipment for the expression of p-ERK.
(§7) Bioanalytical Methods: Bioanalysis of […] plasma and brain samples for Compound 1.003 was performed using the LC-MS/MS analysis. For this study, the analysis was conducted using existing fit for purpose bioanalytical methods. Plasma samples were analyzed undiluted against a plasma standard curve (10 standards between 0.5 to 5000 ng/mL). Prior to analysis for concentration of compound 1.003, the brain samples were weighed, mixed with 5 volumes of water and then homogenised. Homogenised samples were then diluted 2× into plasma and then analysed against the plasma standard curve ([…]). All results were then corrected for the dilution factor.

[2] = Plasma concentration of Compound 1.003 after single intranasal administration of nasal formulation Ex. A (LC-MS/MS); type: in vivo, Mouse; conditions: female athymic mice
Description: as §1, §2, §3, §4, §5, §6, §7

Brain:plasma concentration ratio, individual animal ([1]; 0.250 h post dose, animals 1-3): 0.30 and 0.49
Brain concentration, animal replicates ([1]; 0.250 h post dose): 405 and 375 and 280
Brain concentration, Mean ([1]; 0.250 h post dose): 353 ng/g
Brain:plasma concentration ratio, individual animal ([1]; 0.500 h post dose, animals 4-6): 0.51 and 0.47
Brain concentration, animal replicates ([1]; 0.500 h post dose): 297 and 513 and 383
Brain concentration, Mean ([1]; 0.500 h post dose): 398 ng/g
Brain:plasma concentration ratio, individual animal ([1]; 1.00 h post dose, animals 7-9): 1.45 and 2.49 and 1.15
Brain concentration, animal replicates ([1]; 1.00 h post dose): 188 and 205 and 144
Brain concentration, Mean ([1]; 1.00 h post dose): 179 ng/g
Brain:plasma concentration ratio, Mean ([1]; 4.00 h post dose): 1.72
Brain:plasma concentration ratio, individual animal ([1]; 4.00 h post dose, animals 10-12): 3.65 and 0.89 and 0.63
Brain concentration, animal replicates ([1]; 4.00 h post dose): 166 and 46.5 and 51.9
Brain concentration, Mean ([1]; 4.00 h post dose): 88.1 ng/g
Kp at 0.25 h ([1]; female, NCr mu/mu athymic nude, mouse, brain, inhaled or intranasal, 50 μL, 0.250 h (15 min) post dose, read-out: Brain:plasma concentration ratio, Mean): 0.38
Kp at 0.25 h ([1]; female, NCr mu/mu athymic nude, mouse, brain, inhaled or intranasal, 50 μL, 0.250 h post dose, animals 1-3, read-out: Brain:plasma concentration ratio, individual animal): 0.34
Kp at 0.5 h ([1]; female, NCr mu/mu athymic nude, mouse, brain, inhaled or intranasal, 50 μL, 0.500 h post dose, animals 4-6, read-out: Brain:plasma concentration ratio, individual animal): 0.39
Kp at 0.5 h ([1]; female, NCr mu/mu athymic nude, mouse, brain, inhaled or intranasal, 50 μL, 0.500 h post dose, read-out: Brain:plasma concentration ratio, Mean): 0.46
Kp at 1 h ([1]; female, NCr mu/mu athymic nude, mouse, brain, inhaled or intranasal, 50 μL, 1.00 h post dose): 1.7
Kp at 4 h ([1]; female, NCr mu/mu athymic nude, mouse, brain, inhaled or intranasal, 50 μL, 4.00 h post dose): 1.7
Cmax ([2]; NCr mu/mu athymic nude, mouse, plasma, inhaled or intranasal, single intranasal 50 μL Ex. A, read-out: maximum plasma concentration (Cmax)): 996 ng/mL
Plasma concentration, animal replicates ([2]; single intranasal 50 μL Ex. A, 0.5 h post dose, individual animals): 1000 ng/mL and 823 ng/mL
Plasma concentration, animal replicates ([2]; single intranasal 50 μL Ex. A, 1.0 h post dose, individual animals): 82.4 ng/mL and 125 ng/mL
Plasma concentration, animal replicates ([2]; single intranasal 50 μL Ex. A, 4.0 h post dose, individual animals): 52.4 ng/mL and 82.4 ng/mL
Plasma concentration, animal replicates ([2]; single intranasal 50 μL of nasal formulation Ex. A (2.3%), 0.25 h post dose, individual animals): 1190 ng/mL and 1230 ng/mL and 568 ng/mL
concentration at 0.5 h ([2]; female, NCr mu/mu athymic nude, mouse, plasma, other: intranasal, 50 μL, single intranasal 50 μL Ex. A, 0.5 h post dose, individual animals, read-out: Plasma concentration, animal replicates): 757 ng/mL
concentration at 0.5 h ([2]; female, NCr mu/mu athymic nude, mouse, plasma, other: intranasal, 50 μL, single intranasal 50 μL Ex. A, 0.5 h post dose, mean of 3, read-out: Plasma concentration, Mean): 860 ng/mL
concentration at 1 h ([2]; female, NCr mu/mu athymic nude, mouse, plasma, other: intranasal, 50 μL, single intranasal 50 μL Ex. A, 1.0 h post dose, individual animals, read-out: Plasma concentration, animal replicates): 130 ng/mL
concentration at 1 h ([2]; female, NCr mu/mu athymic nude, mouse, plasma, other: intranasal, 50 μL, single intranasal 50 μL Ex. A, 1.0 h post dose, mean of 3, read-out: Plasma concentration, Mean): 112 ng/mL
concentration at 4 h ([2]; female, NCr mu/mu athymic nude, mouse, plasma, other: intranasal, 50 μL, single intranasal 50 μL Ex. A, 4.0 h post dose, individual animals, read-out: Plasma concentration, animal replicates): 45.5 ng/mL
concentration at 4 h ([2]; female, NCr mu/mu athymic nude, mouse, plasma, other: intranasal, 50 μL, single intranasal 50 μL Ex. A, 4.0 h post dose, mean of 3, read-out: Plasma concentration, Mean): 60.1 ng/mL
concentration at 0.25 h ([2]; female, NCr mu/mu athymic nude, mouse, plasma, other: intranasal, 50 μL, single intranasal 50 μL of nasal formulation Ex. A (2.3%), 0.25 h post dose, mean of 3): 996 ng/mL
SMILES: Cn1c(Nc2ccc(I)cc2F)c(C(=O)NOCCO)c2cccnc21 [Compound 1.003, 2-((2-fluoro-4-iodophenyl)amino)-N-(2-hydroxyethoxy)-1-methyl-1H-pyrrolo[2,3-b]pyridine-3-carboxamide]
